In patent US11382907B2, “Methods and compositions for treating aging-associated impairments using CCR3-inhibitors” (Alkahest, Inc., priority 2017, dated 2022):
“Also recorded” adds a separate entry of the source.

Columns and labels:
[1] = system: doublecortin-positive cells in the hippocampus; assay: Histology: doublecortin (DCX) positive cells in hippocampus of aged mice; type: in vivo, C57Bl/6 mice; conditions: 18-month-old mice; four-week subcutaneous dosing by pump, versus IgG control
Excerpt: Mice were taken down on the day following the end of behavior testing. Anesthesia was induced by 2,2,2-tribromoethanol and mice were subsequently perfused with 0.9% saline trans-cardially. The brains were dissected and cut sagitally in two even halves. One half was snap frozen for later use in dry ice, and the other was fixed in 4% paraformaldehyde in PBS for use in immunohistochemistry. After two days of fixation, the hemibrains were transferred to a 30% sucrose in PBS solution and changed after two days. Hemibrains were sectioned at 30 um on a microtome at −22° C. Brain sections were stored in cryoprotectant media at −20° C. until needed for staining. Blocking was done on free floating sections in the appropriate serum at 10% serum in PBST 0.5%. Primary antibodies were incubated overnight at 4 C. For light microscopy, the following antibodies were used in the given concentrations: DCX, 1:200, Santa Cruz BioTech, CD68, 1:1000. AbD Serotec. Secondary biotinylated antibodies were applied the next day at a concentration of 1:300. Staining visualization was achieved by reaction with the ABC kit (Vector) and diaminobenzidine (Sigma). Dehydration of the mounted slides was achieved using ethanol and xylene dips. Images were acquired on a Leica light microscope at 5× magnification. […]

GFAP-positive astroglia = assay: IHC of GFAP-positive astroglia in hippocampus of mice given daily LPS; type: in vivo, C57Bl/6 mice; conditions: 3-month-old mice, daily LPS IP 7 weeks, 30 mg/kg PO BID 4 weeks
Method: For fluorescent microscopy, the following antibodies were used in the given concentrations: GFAP, 1:500, DAKO; Iba1, 1:1000, Wako; and BrdU, 1:500, AbCam. Antigen retrieval protocol was required for BrdU (2N HCl, 37 C, 30 min) prior to blocking. The appropriate fluorescent secondary antibodies were applied the next day at a concentration of 1:300 for one hour at room temperature. Prolong Gold Mounting Media was used to coverslip the slides. Images were acquired on a light microscope at 5× magnification.
Three-month-old C57 mice were given daily doses of lipopolysaccharide (LPS) 0.5 mg/kg IP to induce inflammation and treated with Compound 1 for up to 4 weeks.
Treatment Groups: • Treatment Group 1, Vehicle treatment: 3-month-old C57 mice (n=10) received daily IP injection of LPS for 7 weeks and twice daily (BID) oral gavage (PO) treatment of vehicle solution for up to 4 weeks. • Treatment Group 2, Vehicle treatment and Oxazolone treatment: 3-month-old C57 mice (n=10) received daily IP injection of LPS for 7 weeks and twice daily (BID) oral gavage (PO) treatment of vehicle solution for up to 4 weeks. • Treatment Group 3, Compound 1 treatment and Oxazolone treatment: 3-month-old C57 mice (n=9) received daily IP injection of LPS for 7 weeks and twice daily (BID) oral gavage (PO) treatment of Compound 1, 30 mg/kg, for up to 4 weeks.

Cc1cc(C(=O)N(C)C)cc(NC(=O)[C@H]2CCC(=O)N2C2CCN(Cc3ccc(Cl)c(C)c3)CC2)n1 [Compound 1]
doublecortin-positive cells in the hippocampus [1]: increased the numbers of doublecortin-positive cells
GFAP+ immunoreactivity (total astrocytes) in hippocampus (GFAP-positive astroglia): dramatically decreased GFAP+ immunoreactivity; also recorded: trend towards decrease
